Source: patent US20220402901A1 (Bial - R&D Investments, S.A., priority 2019, published 2022)

target: T1, Human acid ceramidase (hACR) (Homo sapiens, UniProt Q13510); experiment: Acid ceramidase biochemical fluorescent assay (cell lysates overexpressing acid ceramidase, substrate Rbm14-12); settings: 10 μg lysate protein, 1 hr preincubation at RT, pH 4.5, Rbm14-12 6.3 μM
T1 construct: expressed in transfected cells; lysates of cells overexpressing acid ceramidase
T1 sequence (Q13510 22-395): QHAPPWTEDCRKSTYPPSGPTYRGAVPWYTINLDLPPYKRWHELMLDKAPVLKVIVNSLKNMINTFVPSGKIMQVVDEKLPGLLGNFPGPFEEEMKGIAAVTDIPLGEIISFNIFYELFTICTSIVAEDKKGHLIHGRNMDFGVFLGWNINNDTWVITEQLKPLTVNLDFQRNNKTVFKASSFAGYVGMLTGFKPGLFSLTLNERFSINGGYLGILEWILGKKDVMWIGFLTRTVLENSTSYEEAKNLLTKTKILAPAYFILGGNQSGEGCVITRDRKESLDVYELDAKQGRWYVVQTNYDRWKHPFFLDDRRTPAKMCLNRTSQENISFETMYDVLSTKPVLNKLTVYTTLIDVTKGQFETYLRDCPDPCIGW
Method: The ability of exemplary compounds to inhibit acid ceramidase was measured.
Cell lysates overexpressing acid ceramidase were used as the enzyme source for compound potency determination in a biochemical fluorescent assay. Briefly, compounds were preincubated with 10 μg protein of cell lysates in a dose-response manner for 1 hr at RT in the assay buffer containing 25 mM NaAC and 100 mM NaCl, pH 4.5. The reaction was initiated by the addition of substrate Rbm14-12 at a final concentration of 6.3 μM. The reaction was run at RT for 1 hr before it was stopped by the addition of the stopping buffer containing 20% methanol (v/v), 1 mg/ml NaIO4, 0.1 M glycine, pH 10.6. The samples were incubated with the stopping buffer at RT for 1 hr to allow the fluorescent product to be formed. Finally the plate was read with SpectraMax i3 plate reader (Molecular Devices) at ex360 nm and em446 nm. Data were collected and used to determine the IC50 values of compounds by curve fitting to the four-parameter inhibition equation.
The symbol “A” indicates inhibition of less than 0.2 μM; the symbol “B” indicates inhibition in the range of 0.2 μM up to 1 μM; and the symbol “C” indicates inhibition of greater than 1 μM.

IC50 [nM]	SMILES
< 200	CC1CC(c2ccc3c(c2)oc(=O)n3C)CCN1C(=O)NCCCCc1ccccc1 (mixture of isomers) [Example 16, 2-methyl-4-(3-methyl-2-oxo-1,3-benzoxazol-6-yl)-N-(4-phenylbutyl)piperidine-1-carboxamide]
< 200	C[C@@H]1CC(c2ccc3c(c2)oc(=O)n3C)CCN1C(=O)NCCCCc1ccccc1 (mixture of isomers) [Example 17, (2R)-2-Methyl-4-(3-methyl-2-oxo-1,3-benzoxazol-6-yl)-N-(4-phenylbutyl)piperidine-1-carboxamide]
200 to 1000	C[C@@H]1CC(c2ccc3c(c2)oc(=O)n3C)CCN1C(=O)NCCc1ccccc1 (mixture of isomers) [Example 18, (2R)-2-Methyl-4-(3-methyl-2-oxo-1,3-benzoxazol-6-yl)-N-(2-phenylethyl)piperidine-1-carboxamide]
> 1000	CC(C)CNC(=O)N1CCC(c2ccc3c(c2)oc(=O)n3C)C[C@H]1C (mixture of isomers) [Example 19, N-iso-Butyl (2R)-methyl-4-(3-methyl-2-oxo-1,3-benzoxazol-6-yl)piperidine-1-carboxamide]
< 200	C[C@H]1CC(c2ccc3c(c2)oc(=O)n3C)CCN1C(=O)NCCCCc1ccccc1 (mixture of isomers) [Example 20, (2S)-methyl-4-(3-methyl-2-oxo-1,3-benzoxazol-6-yl)-N-(4-phenylbutyl)piperidine-1-carboxamide]
> 1000	Cn1c(=O)oc2cc(C3CCN(C(=O)NCCCCc4ccccc4)CC3)ccc21 [Example 2, 4-(3-Methyl-2-oxo-1,3-benzoxazol-6-yl)-N-(4-phenylbutyl)piperidine-1-carboxamide]
> 1000	Cn1c(=O)oc2cc(C3CCN(C(=O)NCCC4CC4)CC3)ccc21 [Example 4, N-(2-Cyclopropylethyl)-4-(3-methyl-2-oxo-1,3-benzoxazol-6-yl)piperidine-1-carboxamide]
> 1000	Cn1c(=O)oc2cc(C3CCN(C(=O)NC4CCCCC4)CC3)ccc21 [Example 5, N-Cyclohexyl-4-(3-methyl-2-oxo-1,3-benzoxazol-6-yl)piperidine-1-carboxamide]
> 1000	O=C(NCCCCc1ccccc1)N1CCCC(c2ccc3[nH]c(=O)oc3c2)C1 (stereo not shown) [Example 11, 3-(2-Oxo-3H-1,3-benzoxazol-6-yl)-N-(4-phenylbutyl)piperidine-1-carboxamide]
> 1000	CCCCCNC(=O)N1CCCC(c2ccc3c(c2)oc(=O)n3C)C1 (stereo not shown) [Example 13, 3-(3-Methy-2-oxo-1,3-benzoxazol-6-yl)-N-pentyl-piperidine-1-carboxamide]
> 1000	CCOCCNC(=O)N1CCCC(c2ccc3c(c2)oc(=O)n3C)C1 (stereo not shown) [Example 14, N-(2-Ethoxyethyl)-3-(3-methyl-2-oxo-1,3-benzoxazol-6-yl)piperidine-1-carboxamide]
200 to 1000	Cn1c(=O)oc2cc(C3=CCCN(C(=O)NCCCCc4ccccc4)C3)ccc21 [Example 15, 5-(3-methyl-2-oxo-1,3-benzoxazol-6-yl)-N-(4-phenylbutyl)-3,6-dihydro-2H-pyridine-1-carboxamide]
< 200	CC1(C)CC(c2ccc3[nH]c(=O)oc3c2)CCN1C(=O)NCCCCc1ccccc1 (stereo not shown) [Example 23, 2,2-Dimethyl-4-(2-oxo-3H-1,3-benzoxazol-6-yl)-N-(4-phenylbutyl)piperidine-1-carboxamide]
> 1000	COCCCNC(=O)N1CCC(c2ccc3c(c2)oc(=O)n3C)CC1(C)C (stereo not shown) [Example 30, N-(3-methoxypropyl)-2,2-dimethyl-4-(3-methyl-2-oxo-1,3-benzoxazol-6-yl)piperidine-1-carboxamide]
< 200	CN(C)CCn1c(=O)oc2cc(C3CCN(C(=O)NCCCCc4ccccc4)C(C)(C)C3)ccc21 (stereo not shown) [Example 32, 4-[3-[2-(Dimethylamino)ethyl]-2-oxo-1,3-benzoxazol-6-yl]-2,2-dimethyl-N-(4-phenylbutyl)piperidine-1-carboxamide]
> 1000	Cn1c(=O)oc2cc(C3CCN(C(=O)NCCCCc4ccccc4)C4(COC4)C3)ccc21 (stereo not shown) [Example 34, 8-(3-Methyl-2-oxo-1,3-benzoxazol-6-yl)-N-(4-phenylbutyl)-2-oxa-5-azaspiro[3.5]nonane-5-carboxamide]

IC50 [nM]	SMILES
> 1000	O=C(NCCCCc1ccccc1)N1CCCCC1c1ccc2[nH]c(=O)oc2c1 (stereo not shown) [Example 36, 2-(2-Oxo-3H-1,3-benzoxazol-6-yl)-N-(4-phenylbutyl)piperidine-1-carboxamide]
> 1000	Cn1c(=O)oc2cc(C3COCCN3C(=O)NCCCCc3ccccc3)ccc21 (stereo not shown) [Example 38, 3-(3-Methyl-2-oxo-1,3-benzoxazol-6-yl)-N-(4-phenylbutyl)morpholine-4-carboxamide]
> 1000	Cn1c(=O)oc2cc(C3CCCN3C(=O)NCCCCc3ccccc3)ccc21 (stereo not shown) [Example 44, 2-(3-Methyl-2-oxo-1,3-benzoxazol-6-yl)-N-(4-phenylbutyl)pyrrolidine-1-carboxamide]
> 1000	O=C(NCCCCc1ccccc1)N1CCN(c2ccc3[nH]c(=O)oc3c2)CC1 [Example 45, 4-(2-Oxo-3H-1,3-benzoxazol-6-yl)-N-(4-phenylbutyl)piperazine-1-carboxamide]
200 to 1000	C[C@H]1CN(c2ccc3c(c2)oc(=O)n3C)CCN1C(=O)NCCCCc1ccccc1 [Example 49, (2S)-2-Methyl-4-(3-methyl-2-oxo-1,3-benzoxazol-6-yl)-N-(4-phenylbutyl)piperazine-1-carboxamide]
> 1000	CCOCCNC(=O)N1CCN(c2ccc3c(c2)oc(=O)n3C)CC1(C)C [Example 55, N-(2-Ethoxyethyl)-2,2-dimethyl-4-(3-methyl-2-oxo-1,3-benzoxazol-6-yl)piperazine-1 carboxamide]
> 1000	COCCCNC(=O)N1CCN(c2ccc3c(c2)oc(=O)n3C)CC1(C)C [Example 56, N-(3-Methoxypropyl)-2,2-dimethyl-4-(3-methyl-2-oxo-1,3-benzoxazol-6-yl)piperazine-1-carboxamide]
> 1000	Cn1c(=O)oc2cc(N3CCN(C(=O)NCCCCc4ccccc4)C4(CC4)C3)ccc21 [Example 60, 7-(3-Methyl-2-oxo-1,3-benzoxazol-6-yl)-N-(4-phenylbutyl)-4,7-diazaspiro[2.5]octane-4-carboxamide]
> 1000	Cn1c(=O)oc2cc(N3CC4CCC(C3)N4C(=O)NCCCCc3ccccc3)ccc21 [Example 61, 3-(3-Methyl-2-oxo-1,3-benzoxazol-6-yl)-N-(4-phenylbutyl)-3,8-diazabicyclo[3.2.1]octane-8-carboxamide]
200 to 1000	Cn1c(=O)oc2cc(N3CC4(COC4)N(C(=O)NCCCCc4ccccc4)CC3=O)ccc21 [Example 62, 8-(3-Methyl-2-oxo-1,3-benzoxazol-6-yl)-7-oxo-N-(4-phenylbutyl)-2-oxa-5,8-diazaspiro[3.5]nonane-5-carboxamide]
< 200	Cn1c(=O)oc2cc(N3C[C@H]4CN(C(=O)NCCCCc5ccccc5)C[C@H]4C3)ccc21 [Example 66, (3aS,6aR)- and (3aR,6aS)-2-(3-Methyl-2-oxo-1,3-benzoxazol-6-yl)-N-(4-phenylbutyl)-1,3,3a,4,6,6a-hexahydropyrrolo[3,4-c]pyrrole-5-carboxamide]
> 1000	O=C(NCCCCc1ccccc1)N1CC2(CCN(c3ccc4[nH]c(=O)oc4c3)CC2)C1 [Example 67, 7-(2-Oxo-3H-1,3-benzoxazol-6-yl)-N-(4-phenylbutyl)-2,7-diazaspiro[3.5]nonane-2-carboxamide]
> 1000	Cn1c(=O)oc2cc(N3CCC4(CC3)CN(C(=O)NCCCCc3ccccc3)C4)ccc21 [Example 68, 7-(3-methyl-2-oxo-1,3-benzoxazol-6-yl)-N-(4-phenylbutyl)-2,7-diazaspiro[3.5]nonane-2-carboxamide]
> 1000	O=C(NCCCCc1ccccc1)N1CCC2(CC1)CN(c1ccc3[nH]c(=O)oc3c1)C2 [Example 69, 2-(2-Oxo-3H-1,3-benzoxazol-6-yl)-N-(4-phenylbutyl)-2,7-diazaspiro[3.5]nonane-7-carboxamide]
> 1000	Cn1c(=O)oc2cc(N3CC4(CCN(C(=O)NCCCCc5ccccc5)CC4)C3)ccc21 [Example 70, 2-(3-Methyl-2-oxo-1,3-benzoxazol-6-yl)-N-(4-phenylbutyl)-2,7-diazaspiro[3.5]nonane-7-carboxamide]
> 1000	Cn1c(=O)oc2cc(N3CCC4(CCN(C(=O)NCCCCc5ccccc5)CC4)CC3)ccc21 [Example 71, 9-(3-Methyl-2-oxo-1,3-benzoxazol-6-yl)-N-(4-phenylbutyl)-3,9-diazaspiro[5.5]undecane-3-carboxamide]

system: not listed separately; experiment: Compound solubility in water; assay type: physicochemical; settings: read-out: Solubility in H2O

solubility [µM]	SMILES
2.2	CC1CC(c2ccc3c(c2)oc(=O)n3C)CCN1C(=O)NCCCCc1ccccc1 (mixture of isomers) [Example 16, 2-methyl-4-(3-methyl-2-oxo-1,3-benzoxazol-6-yl)-N-(4-phenylbutyl)piperidine-1-carboxamide]
10	C[C@H]1CC(c2ccc3c(c2)oc(=O)n3C)CCN1C(=O)NCCCCc1ccccc1 (mixture of isomers) [Example 20, (2S)-methyl-4-(3-methyl-2-oxo-1,3-benzoxazol-6-yl)-N-(4-phenylbutyl)piperidine-1-carboxamide]
